The test system of series [1] is THP-1. Kind of series: Cytotoxicity against PMA-differentiated human THP-1 cells assessed as reduction in cell viability at 25 to 100 ug/ml measured after 24 hrs by MTT assay. Type of series: toxicity, cell-based. Particulars: thp-1, 24 h, dose 25-100 µg/ml. A general note: Tetrazolium assays rely on reduction of a dye to a coloured formazan, in cell work by metabolically active cells.

Series [2] has as its system THP-1. In words: Antiinflammatory activity in PMA-differentiated human THP-1 cells assessed as reduction in LPS-induced IL-6 secretion at 25 to 30 ug/ml pretreated with LPS for 3 hrs followed by compound addition and measured after 6 hrs by ELISA. Type of series: functional, cell-based. The settings on record: dose 25-30 µg/ml. (ELISA stands for enzyme-linked immunosorbent assay.)

The subject of series [3] is THP-1. Kind of series: Downregulation of pSTAT3 protein expression in LPS-induced PMA-differentiated human THP-1 cells at […] pretreated with LPS for 3 hrs followed by compound addition and measured after 6 hrs by Western blot analysis. Particulars: dose lower 25.0 mg/ml. Type of series: functional, cell-based. (A western blot detects proteins with antibodies after separation by electrophoresis.)

Each structure is given as a SMILES string. Calls of active or inactive are those of the source. The calls are words filed in the database; no cut-off is given here.

With `O=C1O/C(=C(/C(=O)O)c2ccc(O)cc2)C(O)=C1c1ccc2c(O)c(O)cc(C3=C(O)/C(=C(\C(=O)O)c4ccc(O)cc4)OC3=O)c2c1`, in series [1], the Activity entry is on record as “Non-Toxic”. In addition, the result in series [2] and in series [3] was Active.

The values are drawn from ChEMBL document CHEMBL5344446, “Constituents from the Polar Extract of Pisolithus arhizus and Their Anti-inflammatory Activity” (J Nat Prod, 2024).
